According to PubChem BioAssay (NCI):
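Exposure lasted 48 hours, with cells grown in 96-well plates and compounds tested at five concentrations. TGI denotes the concentration required for complete inhibition of growth.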

Experiments:
Assay in all cases: NCI-60 cell line screen, 48 h
786-0 renal = test system: 786-0 renal
A498 renal = test system: A498 renal
A549 NSCLC = test system: A549 NSCLC
ACHN renal = test system: ACHN renal
CAKI-1 renal = test system: CAKI-1 renal
CCRF-CEM leukemia = test system: CCRF-CEM leukemia
COLO 205 colon = test system: COLO 205 colon
DLD-1 colon = test system: DLD-1 colon
HCT-116 colon = test system: HCT-116 colon
HCT-15 colon = test system: HCT-15 colon
HL-60(TB) leukemia = test system: HL-60(TB) leukemia
HOP-18 NSCLC = test system: HOP-18 NSCLC
HOP-62 NSCLC = test system: HOP-62 NSCLC
HOP-92 NSCLC = test system: HOP-92 NSCLC
HT29 colon = test system: HT29 colon
IGROV1 ovarian = test system: IGROV1 ovarian
K-562 leukemia = test system: K-562 leukemia
KM12 colon = test system: KM12 colon
KM20L2 colon = test system: KM20L2 colon
LOX IMVI melanoma = test system: LOX IMVI melanoma
LXFL 529 NSCLC = test system: LXFL 529 NSCLC
M14 melanoma = test system: M14 melanoma
M19-MEL melanoma = test system: M19-MEL melanoma
MALME-3M melanoma = test system: MALME-3M melanoma
MOLT-4 leukemia = test system: MOLT-4 leukemia
NCI-H226 lung = test system: NCI-H226 lung
NCI-H23 lung = test system: NCI-H23 lung
NCI-H460 lung = test system: NCI-H460 lung
NCI-H522 lung = test system: NCI-H522 lung
OVCAR-3 ovarian = test system: OVCAR-3 ovarian
OVCAR-4 ovarian = test system: OVCAR-4 ovarian
OVCAR-5 ovarian = test system: OVCAR-5 ovarian
OVCAR-8 ovarian = test system: OVCAR-8 ovarian
RPMI-8226 leukemia = test system: RPMI-8226 leukemia
SF-268 CNS = test system: SF-268 CNS
SF-295 CNS = test system: SF-295 CNS
SF-539 CNS = test system: SF-539 CNS
SK-MEL-2 melanoma = test system: SK-MEL-2 melanoma
SK-MEL-28 melanoma = test system: SK-MEL-28 melanoma
SK-MEL-5 melanoma = test system: SK-MEL-5 melanoma
SK-OV-3 ovarian = test system: SK-OV-3 ovarian
SN12C renal = test system: SN12C renal
SNB-19 CNS = test system: SNB-19 CNS
SNB-75 CNS = test system: SNB-75 CNS
SNB-78 CNS = test system: SNB-78 CNS
SR leukemia = test system: SR leukemia
SW-620 colon = test system: SW-620 colon
TK-10 renal = test system: TK-10 renal
U251 CNS = test system: U251 CNS
UACC-257 melanoma = test system: UACC-257 melanoma
UACC-62 melanoma = test system: UACC-62 melanoma
UO-31 renal = test system: UO-31 renal
BT-549 breast = test system: BT-549 breast
DMS 114 small cell lung = test system: DMS 114 small cell lung
DMS 273 small cell lung = test system: DMS 273 small cell lung
DU-145 prostate = test system: DU-145 prostate
EKVX NSCLC = test system: EKVX NSCLC
HCC-2998 colon = test system: HCC-2998 colon
HS 578T breast = test system: HS 578T breast
MCF7 breast = test system: MCF7 breast
MDA-MB-231 breast = test system: MDA-MB-231 breast
MDA-MB-435 = test system: MDA-MB-435
MDA-N = test system: MDA-N
NCI/ADR-RES ovarian = test system: NCI/ADR-RES ovarian
PC-3 prostate = test system: PC-3 prostate
RXF 393 renal = test system: RXF 393 renal
T-47D breast = test system: T-47D breast

SMILES: COc1ccc(NC(=O)CC(=O)NN2C(=O)/C(=C/c3ccc(N(CCC#N)CCC#N)cc3C)N=C2/C=C\c2ccccc2)cc1
- TGI (786-0 renal): > 100 µM
- TGI (A498 renal): > 100 µM
- TGI (A549 NSCLC): > 100 µM
- TGI (ACHN renal): > 100 µM
- TGI (CAKI-1 renal): > 100 µM
- TGI (CCRF-CEM leukemia): > 100 µM
- TGI (COLO 205 colon): > 100 µM
- TGI (DLD-1 colon): > 100 µM
- TGI (HCT-116 colon): > 100 µM
- TGI (HCT-15 colon): > 100 µM
- TGI (HL-60(TB) leukemia): > 100 µM
- TGI (HOP-18 NSCLC): > 100 µM
- TGI (HOP-62 NSCLC): > 100 µM
- TGI (HOP-92 NSCLC): > 100 µM
- TGI (HT29 colon): > 100 µM
- TGI (IGROV1 ovarian): > 100 µM
- TGI (K-562 leukemia): > 100 µM
- TGI (KM12 colon): > 100 µM
- TGI (KM20L2 colon): > 100 µM
- TGI (LOX IMVI melanoma): > 100 µM
- TGI (LXFL 529 NSCLC): > 100 µM
- TGI (M14 melanoma): > 100 µM
- TGI (M19-MEL melanoma): > 100 µM
- TGI (MALME-3M melanoma): > 100 µM
- TGI (MOLT-4 leukemia): > 100 µM
- TGI (NCI-H226 lung): > 100 µM
- TGI (NCI-H23 lung): > 100 µM
- TGI (NCI-H460 lung): > 100 µM
- TGI (NCI-H522 lung): > 100 µM
- TGI (OVCAR-3 ovarian): > 100 µM
- TGI (OVCAR-4 ovarian): > 100 µM
- TGI (OVCAR-5 ovarian): > 100 µM
- TGI (OVCAR-8 ovarian): > 100 µM
- TGI (RPMI-8226 leukemia): > 100 µM
- TGI (SF-268 CNS): > 100 µM
- TGI (SF-295 CNS): > 100 µM
- TGI (SF-539 CNS): > 100 µM
- TGI (SK-MEL-2 melanoma): > 100 µM
- TGI (SK-MEL-28 melanoma): > 100 µM
- TGI (SK-MEL-5 melanoma): > 100 µM
- TGI (SK-OV-3 ovarian): > 100 µM
- TGI (SN12C renal): > 100 µM
- TGI (SNB-19 CNS): > 100 µM
- TGI (SNB-75 CNS): > 100 µM
- TGI (SNB-78 CNS): > 100 µM
- TGI (SR leukemia): > 100 µM
- TGI (SW-620 colon): > 100 µM
- TGI (TK-10 renal): > 100 µM
- TGI (U251 CNS): > 100 µM
- TGI (UACC-257 melanoma): > 100 µM
- TGI (UACC-62 melanoma): > 100 µM
- TGI (UO-31 renal): > 100 µM

SMILES: O=C1C=C(Nc2cccnc2)c2ccccc2C1=O
- TGI (786-0 renal): 23.8 µM
- TGI (A498 renal): 22.3 µM
- TGI (A549 NSCLC): 13.3 µM
- TGI (ACHN renal): 20.5 µM
- TGI (BT-549 breast): 3.83 µM
- TGI (CAKI-1 renal): 18.6 µM
- TGI (CCRF-CEM leukemia): 51.9 µM
- TGI (COLO 205 colon): 38.6 µM
- TGI (DLD-1 colon): 20 µM
- TGI (DMS 114 small cell lung): 5.01 µM
- TGI (DMS 273 small cell lung): > 39.6 µM
- TGI (DU-145 prostate): 14.1 µM
- TGI (EKVX NSCLC): 26.7 µM
- TGI (HCC-2998 colon): 30.5 µM
- TGI (HCT-116 colon): 25.6 µM
- TGI (HCT-15 colon): 29.3 µM
- TGI (HL-60(TB) leukemia): 23 µM
- TGI (HOP-18 NSCLC): 22 µM
- TGI (HOP-62 NSCLC): 12.9 µM
- TGI (HOP-92 NSCLC): 27.1 µM
- TGI (HS 578T breast): 8.33 µM
- TGI (HT29 colon): 33.7 µM
- TGI (IGROV1 ovarian): 18.7 µM
- TGI (K-562 leukemia): 22.7 µM
- TGI (KM12 colon): 23.4 µM
- TGI (KM20L2 colon): > 62.3 µM
- TGI (LOX IMVI melanoma): 9.9 µM
- TGI (LXFL 529 NSCLC): > 51.3 µM
- TGI (M14 melanoma): 6.76 µM
- TGI (MALME-3M melanoma): 5.35 µM
- TGI (MCF7 breast): 8.2 µM
- TGI (MDA-MB-231 breast): 20.4 µM
- TGI (MDA-MB-435): 1390 nM
- TGI (MDA-N): 1420 nM
- TGI (MOLT-4 leukemia): 46.6 µM
- TGI (NCI-H226 lung): 38.1 µM
- TGI (NCI-H23 lung): 9.41 µM
- TGI (NCI-H460 lung): 12.5 µM
- TGI (NCI-H522 lung): 15.5 µM
- TGI (NCI/ADR-RES ovarian): 23.9 µM
- TGI (OVCAR-3 ovarian): 11.6 µM
- TGI (OVCAR-4 ovarian): 19.9 µM
- TGI (OVCAR-5 ovarian): 18.4 µM
- TGI (OVCAR-8 ovarian): 23.1 µM
- TGI (PC-3 prostate): 52.4 µM
- TGI (RPMI-8226 leukemia): 51.3 µM
- TGI (RXF 393 renal): 38 µM
- TGI (SF-268 CNS): 20.9 µM
- TGI (SF-295 CNS): 9.09 µM
- TGI (SF-539 CNS): 8.41 µM
- TGI (SK-MEL-2 melanoma): 25.1 µM
- TGI (SK-MEL-28 melanoma): 13.5 µM
- TGI (SK-MEL-5 melanoma): 2.58 µM
- TGI (SK-OV-3 ovarian): 22.1 µM
- TGI (SN12C renal): 21.5 µM
- TGI (SNB-19 CNS): 24.8 µM
- TGI (SNB-75 CNS): 5.45 µM
- TGI (SNB-78 CNS): 38 µM
- TGI (SR leukemia): 37 µM
- TGI (SW-620 colon): 18.7 µM
- TGI (T-47D breast): 43.8 µM
- TGI (TK-10 renal): 34.5 µM
- TGI (U251 CNS): 24.4 µM
- TGI (UACC-257 melanoma): 4.48 µM
- TGI (UACC-62 melanoma): 3.31 µM
- TGI (UO-31 renal): 24.2 µM

SMILES: CC1(C=O)C(=O)CCC2(C)C3CC(=O)OC3CCC12 (stereo not given)
- TGI (786-0 renal): > 100 µM
- TGI (A549 NSCLC): > 100 µM
- TGI (ACHN renal): > 100 µM
- TGI (CAKI-1 renal): > 100 µM
- TGI (CCRF-CEM leukemia): > 100 µM
- TGI (COLO 205 colon): > 100 µM
- TGI (DLD-1 colon): > 100 µM
- TGI (DMS 114 small cell lung): > 100 µM
- TGI (DMS 273 small cell lung): > 100 µM
- TGI (EKVX NSCLC): > 100 µM
- TGI (HCC-2998 colon): > 100 µM
- TGI (HCT-15 colon): > 100 µM
- TGI (HL-60(TB) leukemia): > 100 µM
- TGI (HOP-18 NSCLC): > 100 µM
- TGI (HOP-62 NSCLC): > 100 µM
- TGI (HOP-92 NSCLC): > 100 µM
- TGI (HT29 colon): > 100 µM
- TGI (IGROV1 ovarian): > 100 µM
- TGI (K-562 leukemia): > 100 µM
- TGI (KM12 colon): > 100 µM
- TGI (KM20L2 colon): > 100 µM
- TGI (LOX IMVI melanoma): > 100 µM
- TGI (LXFL 529 NSCLC): > 100 µM
- TGI (M14 melanoma): > 100 µM
- TGI (M19-MEL melanoma): > 100 µM
- TGI (MALME-3M melanoma): > 100 µM
- TGI (MOLT-4 leukemia): > 100 µM
- TGI (NCI-H23 lung): > 100 µM
- TGI (NCI-H460 lung): > 100 µM
- TGI (NCI-H522 lung): > 100 µM
- TGI (OVCAR-3 ovarian): > 100 µM
- TGI (OVCAR-4 ovarian): > 100 µM
- TGI (OVCAR-5 ovarian): > 100 µM
- TGI (OVCAR-8 ovarian): > 100 µM
- TGI (RPMI-8226 leukemia): > 100 µM
- TGI (RXF 393 renal): > 100 µM
- TGI (SF-268 CNS): > 100 µM
- TGI (SF-295 CNS): > 100 µM
- TGI (SF-539 CNS): > 100 µM
- TGI (SK-MEL-2 melanoma): > 100 µM
- TGI (SK-MEL-28 melanoma): > 100 µM
- TGI (SK-MEL-5 melanoma): > 100 µM
- TGI (SK-OV-3 ovarian): > 100 µM
- TGI (SN12C renal): > 100 µM
- TGI (SNB-19 CNS): > 100 µM
- TGI (SNB-75 CNS): > 100 µM
- TGI (SW-620 colon): > 100 µM
- TGI (TK-10 renal): > 100 µM
- TGI (U251 CNS): > 100 µM
- TGI (UACC-257 melanoma): > 100 µM
- TGI (UACC-62 melanoma): > 100 µM
- TGI (UO-31 renal): > 100 µM
